The experiment deals with GluA1o-γ8 (GRIA1o-CACNG8 fusion construct; TARP γ8 dependent AMPA receptor) (Homo sapiens (Human), UniProt P42261+Q8WXS5). As to the kind of experiment: Calcium flux assay (FLIPR), inhibition of glutamate response of GluA1o-γ8 channel. The format is cell-based. Particulars: HEK293 cells stably expressing GRIA1o-CACNG8 fusion; 15 μM glutamate; pIC50 = negative log of IC50 in molar; read-out: GluR1-γ8 (pIC50) (converted). In outline:
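Potency is the midpoint of a four-parameter logistic fit to control-normalized FLIPR calcium responses elicited by 15 μM glutamate. Stable HEK293 cells carried a fused GluA1o-γ8 construct and were preincubated with compound and calcium dye in pH 7.4 HEPES buffer.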
For orientation: Calcium assays in cells follow changes in intracellular calcium, usually with a dye or a luminescent sensor.

Structures are written as SMILES.

Chain of GluA1o-γ8 (GRIA1o-CACNG8 fusion construct; TARP γ8 dependent AMPA receptor) (P42261 other isoform, or with tags, fused parts or gaps): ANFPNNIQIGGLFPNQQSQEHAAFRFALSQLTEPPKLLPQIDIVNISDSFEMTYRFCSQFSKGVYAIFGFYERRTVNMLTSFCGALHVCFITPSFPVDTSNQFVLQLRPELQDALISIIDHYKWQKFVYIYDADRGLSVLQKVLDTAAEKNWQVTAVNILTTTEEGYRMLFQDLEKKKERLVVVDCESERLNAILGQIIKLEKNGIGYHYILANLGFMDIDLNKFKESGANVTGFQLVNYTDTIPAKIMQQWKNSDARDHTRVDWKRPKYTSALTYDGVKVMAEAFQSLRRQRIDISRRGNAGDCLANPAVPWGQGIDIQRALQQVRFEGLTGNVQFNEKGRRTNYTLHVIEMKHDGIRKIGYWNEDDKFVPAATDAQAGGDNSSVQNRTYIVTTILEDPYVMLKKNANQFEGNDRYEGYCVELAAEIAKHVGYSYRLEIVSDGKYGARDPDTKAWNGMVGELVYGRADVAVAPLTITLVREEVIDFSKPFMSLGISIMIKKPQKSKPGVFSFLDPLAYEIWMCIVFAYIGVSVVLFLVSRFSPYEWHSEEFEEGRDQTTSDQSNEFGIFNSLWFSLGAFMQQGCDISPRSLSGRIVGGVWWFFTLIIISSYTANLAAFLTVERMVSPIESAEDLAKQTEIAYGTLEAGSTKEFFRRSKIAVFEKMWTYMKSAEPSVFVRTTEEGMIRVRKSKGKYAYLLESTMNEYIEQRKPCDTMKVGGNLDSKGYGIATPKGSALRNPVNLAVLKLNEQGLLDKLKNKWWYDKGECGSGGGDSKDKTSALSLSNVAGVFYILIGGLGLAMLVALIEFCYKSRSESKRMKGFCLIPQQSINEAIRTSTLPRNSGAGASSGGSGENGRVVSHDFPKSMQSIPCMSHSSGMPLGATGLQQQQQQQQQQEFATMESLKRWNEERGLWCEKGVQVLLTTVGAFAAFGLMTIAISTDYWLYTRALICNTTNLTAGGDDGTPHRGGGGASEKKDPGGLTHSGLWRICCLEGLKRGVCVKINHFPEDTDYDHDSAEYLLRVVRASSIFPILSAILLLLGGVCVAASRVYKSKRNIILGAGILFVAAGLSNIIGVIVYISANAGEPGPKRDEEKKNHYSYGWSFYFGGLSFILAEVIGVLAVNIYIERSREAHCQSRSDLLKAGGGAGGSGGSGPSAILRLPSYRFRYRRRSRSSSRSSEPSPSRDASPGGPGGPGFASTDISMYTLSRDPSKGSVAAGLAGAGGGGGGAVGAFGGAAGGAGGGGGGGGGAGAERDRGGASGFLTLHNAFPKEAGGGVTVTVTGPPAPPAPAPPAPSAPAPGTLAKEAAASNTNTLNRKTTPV

For the compound `CC(=O)N1CCN(c2nccn3c(-c4ccc5[nH]ncc5c4)c(-c4ccc(C#N)cc4)nc23)CC1` [Example 103, 4-[8-(4-Acetylpiperazin-1-yl)-3-(1H-indazol-5-yl)imidazo[1,2-a]pyrazin-2-yl]benzonitrile], the IC50 is 0.794 nM.
With `Nc1nc2cc(-c3c(-c4ccc(F)cc4)nc4c(N5CCOCC5)nccn34)ccc2[nH]1` [Example 121, 5-[2-(4-Fluorophenyl)-8-morpholino-imidazo[1,2-a]pyrazin-3-yl]-1H-benzimidazol-2-amine], the IC50 was 631 nM.
The value for `CCCNC(=O)c1nc2c(N3CCOCC3)nccn2c1-c1ccc(O)cc1` [Example 148, 3-(4-Hydroxyphenyl)-8-morpholino-N-propyl-imidazo[1,2-a]pyrazine-2-carboxamide] was 631 nM; that for `O=c1[nH]c2ccc(-c3c(Cc4ccccc4)nc4c(N5CCOCC5)nccn34)cc2[nH]1` [Example 22, 5-(2-Benzyl-8-morpholino-imidazo[1,2-a]pyrazin-3-yl)-1,3-dihydrobenzimidazol-2-one] was 1.58 nM; that for `O=C1Cc2cc(-c3c(C4CCCC4)nn4c(N5CC(O)C5)nccc34)ccc2N1` [Example 205, 5-[2-Cyclopentyl-7-(3-hydroxyazetidin-1-yl)pyrazolo[1,5-c]pyrimidin-3-yl]indolin-2-one] was 631 nM.
The value for `COC1CCN(c2nccc3c(-c4ccc5c(c4)CC(=O)N5)c(-c4ccccc4)nn23)CC1` [Example 189, 5-[7-(4-Methoxy-1-piperidyl)-2-phenyl-pyrazolo[1,5-c]pyrimidin-3-yl]indolin-2-one] was 0.158 nM; that for `CC(=O)NC1CCN(c2nccn3c(-c4ccc(O)cc4)c(-c4ccc(Cl)cc4)nc23)CC1` [Example 93, N-[1-[2-(4-Chlorophenyl)-3-(4-hydroxyphenyl)imidazo[1,2-a]pyrazin-8-yl]-4-piperidyl]acetamide] was 31.6 nM; that for `O=C1Cc2cc(-c3c(-c4ccc(F)cc4)nc4c(F)nccn34)ccc2N1` [Example 132, 5-[8-Fluoro-2-(4-fluorophenyl)imidazo[1,2-a]pyrazin-3-yl]indolin-2-one] was 631 nM.
For the compound `Cc1nccn2c(-c3ccc4c(c3)CC(=O)N4)c(-c3ccc(F)cc3)nc12` [Example 133, 5-[2-(4-Fluorophenyl)-8-methyl-imidazo[1,2-a]pyrazin-3-yl]indolin-2-one], the IC50 was 251 nM.
With `CC(C)(C)c1nn2cnc(C(F)(F)F)cc2c1-c1ccc2c(c1)CC(=O)N2` [Example 225, 5-[2-tert-Butyl-5-(trifluoromethyl)pyrazolo[1,5-c]pyrimidin-3-yl]indolin-2-one], the IC50 is 501 nM.
Regarding `O=S1(=O)Cc2cc(-c3c(-c4ccc(F)cc4)nc4c(N5CC6(COC6)C5)nccn34)ccc2N1` [Example 108, 5-(2-(4-Fluorophenyl)-8-(2-oxa-6-azaspiro[3.3]heptan-6-yl)imidazo[1,2-a]pyrazin-3-yl)-1,3-dihydrobenzo[c]isothiazole 2,2-dioxide], the IC50 is 15.8 nM.
`CC(C)(C)c1nc2c(N3CCOCC3)nccn2c1-c1ccc2c(c1)CC(=O)N2` [Example 86, 5-(2-tert-Butyl-8-morpholino-imidazo[1,2-a]pyrazin-3-yl)indolin-2-one]: the IC50 was 158 nM.
Turning to `O=C1Cc2cc(-c3c(-c4ccc(F)cc4)nn4c(N5CCC(F)CC5)nccc34)ccc2N1` [Example 190, 5-[2-(4-Fluorophenyl)-7-(4-fluoro-1-piperidyl)pyrazolo[1,5-c]pyrimidin-3-yl]indolin-2-one], the IC50 was 0.2 nM.
For `N#Cc1ccc(-c2nc3c(N4CCOCC4)nccn3c2-c2ccc3c(c2)CC(=O)N3)cc1` [Example 102, 4-[8-Morpholino-3-(2-oxoindolin-5-yl)imidazo[1,2-a]pyrazin-2-yl]benzonitrile], the IC50 was 2 nM.
With `O=C1Nc2ccc(-c3c(-c4ccc(F)cc4)nc4c(N5CCOCC5)nccn34)cc2CO1` [Example 124, 6-[2-(4-fluorophenyl)-8-morpholino-imidazo[1,2-a]pyrazin-3-yl]-1,4-dihydro-3,1-benzoxazin-2-one], the IC50 is 7.94 nM.
Turning to `CC(C)(C)OC(=O)N1CCN(c2nccn3c(-c4ccc(O)cc4)c(-c4ccc(F)cc4)nc23)CC1` [Example 3, tert-Butyl 4-[2-(4-fluorophenyl)-3-(4-hydroxyphenyl)imidazo[1,2-a]pyrazin-8-yl]piperazine-1-carboxylate], the IC50 is 631 nM.
In the case of `CN(C)c1nccn2c(-c3ccc4[nH]c(=O)[nH]c4c3)c(-c3ccc(F)cc3)nc12` [Example 101, 5-[8-(Dimethylamino)-2-(4-fluorophenyl)imidazo[1,2-a]pyrazin-3-yl]-1,3-dihydrobenzimidazol-2-one], the IC50 is 0.501 nM.
Regarding `O=C1Cc2cc(-c3c(-c4ccc(F)cc4)nn4c(N5CC(CO)C5)nccc34)ccc2N1` [Example 180, 5-[2-(4-Fluorophenyl)-7-[3-(hydroxymethyl)azetidin-1-yl]pyrazolo[1,5-c]pyrimidin-3-yl]indolin-2-one], the IC50 is 2 nM.
Turning to `O=C1Cc2cc(-c3c(C4CCC4)nn4cnc(C(F)(F)F)cc34)ccc2N1` [Example 226, 5-[2-Cyclobutyl-5-(trifluoromethyl)pyrazolo[1,5-c]pyrimidin-3-yl]indolin-2-one], the IC50 is 794 nM.
Turning to `CN(c1nccn2c(-c3ccc4c(c3)CC(=O)N4)c(-c3ccc(F)cc3)nc12)C1CC1` [Example 46, 5-[8-[Cyclopropyl(methyl)amino]-2-(4-fluorophenyl)imidazo[1,2-a]pyrazin-3-yl]indolin-2-one], the IC50 was 5.01 nM.
Take `O=C1Cc2cc(-c3c(-c4ccc(F)cc4)nc4c(N5CC[C@H](O)[C@H](F)C5)nccn34)ccc2N1` (relative stereo) [Example 73, (cis)-5-[8-(3-Fluoro-4-hydroxy-1-piperidyl)-2-(4-fluorophenyl)imidazo[1,2-a]pyrazin-3-yl]indolin-2-one]: the IC50 was 0.316 nM.
In the case of `CC1COCCN1c1nccc2c(-c3ccc4c(c3)CC(=O)N4)c(-c3ccc(F)cc3)nn12` (centres unmarked) [Example 177, 5-[2-(4-Fluorophenyl)-7-(3-methylmorpholin-4-yl)pyrazolo[1,5-c]pyrimidin-3-yl]indolin-2-one], the IC50 was 0.2 nM.
As for `CC1(O)CN(c2nccn3c(-c4ccc5c(c4)CC(=O)N5)c(-c4ccc(F)cc4)nc23)C1` [Example 67, 5-[2-(4-Fluorophenyl)-8-(3-hydroxy-3-methyl-azetidin-1-yl)imidazo[1,2-a]pyrazin-3-yl]indolin-2-one], the IC50 is 1.26 nM.
For `O=C1Cc2cc(-c3c(-c4ccc(F)cc4)nc4c(N5CCS(=O)(=O)CC5)nccn34)ccc2N1` [Example 47, 5-[8-(1,1-Dioxo-1,4-thiazinan-4-yl)-2-(4-fluorophenyl)imidazo[1,2-a]pyrazin-3-yl]indolin-2-one], the IC50 is 0.398 nM.
The value for `Nc1nccn2c(-c3ccc4c(c3)CC(=O)N4)c(-c3ccc(F)cc3)nc12` [Example 248, 5-[8-Amino-2-(4-fluorophenyl)imidazo[1,2-a]pyrazin-3-yl]indolin-2-one] was 5010 nM; that for `CC(C)c1nn2c(N3CCOCC3)ncc(F)c2c1-c1ccc2[nH]ncc2c1` [Example 236, 4-[4-Fluoro-3-(1H-indazol-5-yl)-2-isopropyl-pyrazolo[1,5-c]pyrimidin-7-yl]morpholine] was 158 nM.
Consider `N#Cc1ccc(-c2nc3c(N4CCOCC4)nccn3c2-c2ccc(O)cc2)cc1` [Example 95, 4-[3-(4-Hydroxyphenyl)-8-morpholino-imidazo[1,2-a]pyrazin-2-yl]benzonitrile], for which the IC50 is 31.6 nM.
`Cc1cnc(N2CCOCC2)n2nc(-c3ccccc3)c(-c3ccc4c(c3)CC(=O)N4)c12` [Example 208, 5-(4-Methyl-7-morpholino-2-phenyl-pyrazolo[1,5-c]pyrimidin-3-yl)indolin-2-one]: the IC50 was 0.126 nM.
The value for `O=C(c1ccccc1)c1nc2c(N3CCOCC3)nccn2c1-c1ccc2[nH]c(=O)oc2c1` [Example 156, 6-(2-Benzoyl-8-morpholino-imidazo[1,2-a]pyrazin-3-yl)-3H-1,3-benzoxazol-2-one] was 1.26 nM; that for `COC1CN(c2nccc3c(-c4ccc5c(c4)CC(=O)N5)c(-c4ccccc4)nn23)C1` [Example 191, 5-[7-(3-Methoxyazetidin-1-yl)-2-phenyl-pyrazolo[1,5-c]pyrimidin-3-yl]indolin-2-one] was 2.51 nM; that for `CO[C@@H]1CCN(c2nccc3c(-c4ccc5c(c4)CC(=O)N5)c(-c4ccccc4)nn23)C1` [Example 202, 5-[7-[(3R)-3-Methoxypyrrolidin-1-yl]-2-phenyl-pyrazolo[1,5-c]pyrimidin-3-yl]indolin-2-one] was 2.51 nM.
For the compound `Fc1ccc(-c2nc3c(N4CCOCC4)nccn3c2-c2ccc3[nH]ccc3c2)cc1` [Example 16, 4-[2-(4-Fluorophenyl)-3-(1H-indol-5-yl)imidazo[1,2-a]pyrazin-8-yl]morpholine], the IC50 was 15.8 nM.
As to `O=C1Cc2cc(-c3c(-c4ccccc4)nn4c(N5CCC(F)CC5)nccc34)ccc2N1` [Example 188, 5-[7-(4-Fluoro-1-piperidyl)-2-phenyl-pyrazolo[1,5-c]pyrimidin-3-yl]indolin-2-one], the IC50 is 0.501 nM.
In the case of `O=c1[nH]c2ccc(-c3c(-c4ccccc4)nn4cnc(C(F)(F)F)cc34)cc2o1` [Example 223, 6-[2-Phenyl-5-(trifluoromethyl)pyrazolo[1,5-c]pyrimidin-3-yl]-3H-1,3-benzoxazol-2-one], the IC50 is 501 nM.
With `Cc1cnc(N2CCOCC2)n2nc(C(C)C)c(-c3ccc4c(c3)CC(=O)N4)c12` [Example 244, 5-(2-Isopropyl-4-methyl-7-morpholino-pyrazolo[1,5-c]pyrimidin-3-yl)indolin-2-one], the IC50 is 79.4 nM.

The record behind these values is US10513523B2, “Imidazopyrazines and pyrazolopyrimidines and their use as AMPA receptor modulators” (Janssen Pharmaceutica NV, priority 2015, dated 2019).
